Publication PMC7104226, “Antiepileptic Drug Carbamazepine Binds to a Novel Pocket on the Wnt Receptor Frizzled-8” (Journal of Medicinal Chemistry, 2020)

Target: T1, FZD8 (frizzled-8) cysteine-rich domain, FZD8CRD (Mus musculus, UniProt Q61091)
T1 construct: Extracellular CRD A28-R153, pHL-Avi3, BirA-biotinylated, secreted from HEK293T, immobilized on streptavidin SPR chip
T1 sequence (Q61091 28-153): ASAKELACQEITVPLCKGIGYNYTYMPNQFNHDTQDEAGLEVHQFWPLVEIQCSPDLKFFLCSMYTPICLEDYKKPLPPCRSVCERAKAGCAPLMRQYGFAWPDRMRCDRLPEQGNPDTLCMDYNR
Assay: crystal structure at […] Å (N49E/N152E construct); SPR Kd on biotinylated FZD8CRD (A28-R153)
Assay type: binding

NC(=O)N1c2ccccc2C=Cc2ccccc21 [compound 79, 5H-dibenzo[b,f]azepine-5-carboxamide]
Kd: 17 µM
